Data set [1] concerns Rattus norvegicus. The data set can be described thus: Induction of c-Fos protein expression in rat nucleus accumbens shell at 3 mg/kg, ip after 1 hr by light microscopy. Type of data set: functional, organism-based. Details: dose 3 mg/kg.
Data set [2] has as its system Rattus norvegicus. The data set can be described thus: Induction of c-Fos protein expression in rat nucleus accumbens core subregion at 3 mg/kg, ip after 1 hr by light microscopy. It is filed as functional, organism-based. Details: dose 3 mg/kg.
In data set [3] the test system is Rattus norvegicus. Kind of data set: Induction of c-Fos protein expression in rat nucleus accumbens core subregion at 10 mg/kg, ip after 1 hr by light microscopy. Type of data set: functional, organism-based. Details: dose 10 mg/kg.
Data set [4] deals with Rattus norvegicus. The data set can be described thus: Induction of c-Fos protein expression in ip dosed rat dorsolateral striatum after 1 hr by light microscopy. It is filed as functional, organism-based.
The next data set deals with Histamine H1 receptor (Cavia porcellus, UniProt P31389). Kind of data set: Displacement of [3H]pyrilamine from histamine H1 receptor in guinea pig cerebellum. Type of data set: tissue-based.
Histamine H1 receptor, sequence (P31389 whole entry): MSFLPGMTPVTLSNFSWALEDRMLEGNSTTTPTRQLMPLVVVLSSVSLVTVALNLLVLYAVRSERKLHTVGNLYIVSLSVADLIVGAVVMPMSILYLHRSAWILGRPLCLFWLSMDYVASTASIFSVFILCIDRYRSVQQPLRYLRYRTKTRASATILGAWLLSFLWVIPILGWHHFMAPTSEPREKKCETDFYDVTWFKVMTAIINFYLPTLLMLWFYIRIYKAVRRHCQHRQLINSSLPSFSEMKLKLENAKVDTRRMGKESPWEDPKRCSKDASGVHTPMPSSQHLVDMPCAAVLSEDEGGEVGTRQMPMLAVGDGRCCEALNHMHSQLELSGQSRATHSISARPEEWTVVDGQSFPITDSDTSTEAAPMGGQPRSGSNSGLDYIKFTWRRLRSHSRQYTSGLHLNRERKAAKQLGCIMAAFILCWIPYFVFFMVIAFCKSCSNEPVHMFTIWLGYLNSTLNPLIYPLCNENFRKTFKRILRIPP
Data set [5] addresses T1, Adrenergic receptor alpha-1 (Rattus norvegicus, UniProt P15823+P23944+P43140).
T1 sequence (P15823 whole entry): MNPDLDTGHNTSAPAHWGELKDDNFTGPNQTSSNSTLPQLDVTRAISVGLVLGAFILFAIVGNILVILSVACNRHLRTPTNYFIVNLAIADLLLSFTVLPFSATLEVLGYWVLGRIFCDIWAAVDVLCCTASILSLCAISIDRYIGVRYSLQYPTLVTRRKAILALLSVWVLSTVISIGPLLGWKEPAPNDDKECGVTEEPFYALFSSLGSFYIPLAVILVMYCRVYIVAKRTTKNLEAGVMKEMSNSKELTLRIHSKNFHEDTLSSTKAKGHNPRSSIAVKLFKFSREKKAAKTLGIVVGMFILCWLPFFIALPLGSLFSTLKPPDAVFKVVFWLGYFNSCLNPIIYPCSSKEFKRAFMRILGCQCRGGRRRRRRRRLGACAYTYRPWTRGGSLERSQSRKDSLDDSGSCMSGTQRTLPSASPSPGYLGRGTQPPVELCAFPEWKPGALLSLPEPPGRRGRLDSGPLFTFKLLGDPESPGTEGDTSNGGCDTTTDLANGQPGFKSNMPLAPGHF
T1 sequence (P23944 whole entry): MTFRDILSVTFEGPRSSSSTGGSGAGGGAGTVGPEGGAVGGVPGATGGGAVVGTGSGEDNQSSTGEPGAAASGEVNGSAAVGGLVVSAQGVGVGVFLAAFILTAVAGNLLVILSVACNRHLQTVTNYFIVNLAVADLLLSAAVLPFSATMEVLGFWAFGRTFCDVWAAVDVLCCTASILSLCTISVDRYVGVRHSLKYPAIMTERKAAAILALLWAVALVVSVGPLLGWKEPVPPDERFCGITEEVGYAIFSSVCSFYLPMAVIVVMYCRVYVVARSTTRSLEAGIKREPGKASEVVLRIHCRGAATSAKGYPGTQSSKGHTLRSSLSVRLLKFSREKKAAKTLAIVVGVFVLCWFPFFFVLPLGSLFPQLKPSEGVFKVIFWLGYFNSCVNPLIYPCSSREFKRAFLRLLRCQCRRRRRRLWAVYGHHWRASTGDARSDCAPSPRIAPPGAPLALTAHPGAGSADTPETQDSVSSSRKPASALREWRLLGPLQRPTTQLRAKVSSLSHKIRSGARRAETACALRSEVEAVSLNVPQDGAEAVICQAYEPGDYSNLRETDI
T1 sequence (P43140 whole entry): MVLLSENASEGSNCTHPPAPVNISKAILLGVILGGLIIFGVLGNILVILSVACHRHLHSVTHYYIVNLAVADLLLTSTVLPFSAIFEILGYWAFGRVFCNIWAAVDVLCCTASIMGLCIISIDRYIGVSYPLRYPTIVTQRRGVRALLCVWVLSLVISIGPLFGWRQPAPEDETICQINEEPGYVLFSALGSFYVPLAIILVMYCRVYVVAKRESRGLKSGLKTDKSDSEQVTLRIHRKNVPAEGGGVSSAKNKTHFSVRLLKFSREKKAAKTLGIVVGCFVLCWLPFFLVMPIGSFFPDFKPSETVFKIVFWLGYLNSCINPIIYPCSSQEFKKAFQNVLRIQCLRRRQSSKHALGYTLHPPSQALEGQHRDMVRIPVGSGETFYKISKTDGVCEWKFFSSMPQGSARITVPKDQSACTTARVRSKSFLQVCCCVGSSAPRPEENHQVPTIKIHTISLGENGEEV
Kind of data set: Displacement of [3H]prazosin from adrenergic alpha1 receptor in rat cerebral cortex by liquid scintillation counting. Type of data set: tissue-based. On the technique in general: In a radioligand displacement assay an active substance lowers the binding of a labelled ligand.

For data set [6], the target named is T2, D(3) dopamine receptor (Homo sapiens, UniProt P35462). The data set can be described thus: Antagonist activity at human dopamine D3 receptor expressed in CHO-K1 cells by [35S]GTPgammaS binding assay. It is filed as functional, cell-based. In general terms: Binding of GTPγS marks nucleotide exchange on a G protein.
T2 sequence (P35462 whole entry): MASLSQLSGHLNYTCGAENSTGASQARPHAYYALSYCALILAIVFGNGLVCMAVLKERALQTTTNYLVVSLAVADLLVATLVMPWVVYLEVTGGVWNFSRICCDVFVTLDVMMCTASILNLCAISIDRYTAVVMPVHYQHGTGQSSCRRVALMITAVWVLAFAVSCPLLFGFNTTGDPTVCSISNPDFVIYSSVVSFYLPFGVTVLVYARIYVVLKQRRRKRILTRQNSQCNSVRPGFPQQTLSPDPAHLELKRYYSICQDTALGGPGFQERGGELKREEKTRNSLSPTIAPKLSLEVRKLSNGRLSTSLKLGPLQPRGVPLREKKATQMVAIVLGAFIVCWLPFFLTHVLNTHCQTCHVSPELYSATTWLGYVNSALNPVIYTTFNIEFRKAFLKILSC
Data set [7] addresses T3, 5-hydroxytryptamine receptor 2A (Rattus norvegicus, UniProt P14842). Kind of data set: Intrinsic activity at 5HT2A receptor in Wistar rat aorta. Type of data set: tissue-based.
Data set [8] addresses T3, 5-hydroxytryptamine receptor 2A.
Description: Displacement of [3H]ketanserin from 5HT2A receptor in CRL:CD(SD)BR-COBS rat cortex by scintillation spectrometry
The species named for data set [9] is Mus musculus. The settings on record: in vivo, sc, 1 h.
Description: Toxicity in sc dosed NMRI mouse assessed as cataleptogenic potential administered 30 mins prior to testing measured every 15 mins for 60 mins by horizontal bar test
Data set [10] addresses T2, D(3) dopamine receptor. Kind of data set: biochemical.
Description: Displacement of [3H]7OH-DPAT from dopamine D3 receptor expressed in Sf9 cells by scintillation spectrometry
The species named for data set [11] is Mus musculus. The data set can be described thus: animal or person. The settings on record: NMRI.
Description: Antipsychotic activity in NMRI mouse assessed as reduction in phencyclidine-induced locomotor activity administered 30 mins prior to testing measured for 60 mins

The values below come from ChEMBL document CHEMBL1139353, “Discovery of a new class of potential multifunctional atypical antipsychotic agents targeting dopamine D3 and serotonin 5-HT1A and 5-HT2A receptors: design, synthesis, and effects on behavior” (J Med Chem, 2009).

Activity calls are given as the source filed them. The rule behind the calls is not given here.

T3 sequence (P14842 whole entry): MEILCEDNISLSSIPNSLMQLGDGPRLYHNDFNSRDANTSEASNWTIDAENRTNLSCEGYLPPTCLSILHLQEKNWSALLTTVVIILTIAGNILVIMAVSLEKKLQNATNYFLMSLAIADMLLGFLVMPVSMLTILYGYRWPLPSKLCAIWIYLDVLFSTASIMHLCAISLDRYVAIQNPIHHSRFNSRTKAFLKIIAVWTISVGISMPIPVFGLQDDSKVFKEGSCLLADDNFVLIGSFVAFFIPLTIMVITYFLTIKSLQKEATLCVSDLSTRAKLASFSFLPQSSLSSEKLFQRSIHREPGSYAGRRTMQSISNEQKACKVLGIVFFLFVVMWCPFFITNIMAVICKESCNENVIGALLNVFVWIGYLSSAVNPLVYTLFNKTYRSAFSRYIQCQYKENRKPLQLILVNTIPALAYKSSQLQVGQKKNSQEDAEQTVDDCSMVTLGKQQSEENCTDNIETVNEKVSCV

The term Ki denotes the dissociation constant of the complex between target and ligand, obtained from inhibition or displacement. Low values mean a stronger hold on the target, high ones a looser hold on the target. As usually defined, the IC50 is the point on the concentration scale where inhibition reaches its midpoint. As usually defined, the ED50 is the dose at which the effect has come halfway, by size or by number of responders. A lower ED50 goes with an effect at a small dose. For the molecule `Cc1cccc(N2CCN(CCCCNC(=O)c3cc4ccccc4o3)CC2)c1`, the outcome in the data set on Rattus norvegicus [1] and with Rattus norvegicus [3] was Active. Besides, in the data set on Rattus norvegicus [2], the outcome was inactive. In addition, the Activity entry with Rattus norvegicus [4] was “Dose-dependent effect”. Further, the inhibition constant Ki on Histamine H1 receptor was determined as 15 nM; in data set [5], 6 nM; in data set [8], 15.3 nM; on D(3) dopamine receptor [10] it was 4.5 nM. Moreover, the figures for the IC50 (on D(3) dopamine receptor [6]; in data set [7]) were 143 nM and 230 nM, respectively. In addition, the ED50 was greater than 30 mg/kg in the data set listed under Mus musculus [9] and 2.6 mg/kg in the data set filed under Mus musculus [11].
